Laboratory results: ChEMBL document CHEMBL1909576, “Continued exploration of biphenylsulfonamide scaffold as a platform for aggrecanase-1 inhibition” (Bioorg Med Chem Lett, 2011)

What was measured:
[1] = biological target: T1, A disintegrin and metalloproteinase with thrombospondin motifs 4 (Homo sapiens, UniProt O75173); experiment: Inhibition of aggrecanase-1
T1 sequence (O75173 whole entry): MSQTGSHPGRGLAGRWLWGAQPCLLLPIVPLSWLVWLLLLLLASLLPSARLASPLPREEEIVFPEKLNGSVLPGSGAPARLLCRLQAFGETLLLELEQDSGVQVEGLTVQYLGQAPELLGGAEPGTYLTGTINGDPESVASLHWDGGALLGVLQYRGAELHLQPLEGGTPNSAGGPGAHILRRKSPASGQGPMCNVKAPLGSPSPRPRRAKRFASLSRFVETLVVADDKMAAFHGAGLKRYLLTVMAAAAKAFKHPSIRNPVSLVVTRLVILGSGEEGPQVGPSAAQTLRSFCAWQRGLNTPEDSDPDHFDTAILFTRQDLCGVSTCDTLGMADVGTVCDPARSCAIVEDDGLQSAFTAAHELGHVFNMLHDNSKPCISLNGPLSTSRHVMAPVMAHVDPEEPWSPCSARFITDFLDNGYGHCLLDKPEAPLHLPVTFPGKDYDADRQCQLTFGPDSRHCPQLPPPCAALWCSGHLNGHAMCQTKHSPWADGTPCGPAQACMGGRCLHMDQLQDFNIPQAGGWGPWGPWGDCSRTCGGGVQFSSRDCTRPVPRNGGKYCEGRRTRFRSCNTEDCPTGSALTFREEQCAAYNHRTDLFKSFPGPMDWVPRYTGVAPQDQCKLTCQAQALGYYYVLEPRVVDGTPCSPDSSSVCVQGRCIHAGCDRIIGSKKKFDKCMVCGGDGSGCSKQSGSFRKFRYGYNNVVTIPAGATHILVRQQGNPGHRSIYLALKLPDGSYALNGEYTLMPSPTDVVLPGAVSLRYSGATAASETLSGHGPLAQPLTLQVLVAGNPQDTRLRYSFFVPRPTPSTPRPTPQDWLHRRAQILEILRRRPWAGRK

Collagenase 3 = Collagenase 3 (Homo sapiens, UniProt P45452); experiment: Inhibition of MMP13
[2] = biological target: T2, A disintegrin and metalloproteinase with thrombospondin motifs 4 (Bos taurus) (UniProt Q9TT93); experiment: Inhibition of aggrecanase 1 in bovine cartilage explant assessed as inhibition of IL1-stimulated proteoglycan degradation at 10 ug/ml
T2 sequence (whole entry): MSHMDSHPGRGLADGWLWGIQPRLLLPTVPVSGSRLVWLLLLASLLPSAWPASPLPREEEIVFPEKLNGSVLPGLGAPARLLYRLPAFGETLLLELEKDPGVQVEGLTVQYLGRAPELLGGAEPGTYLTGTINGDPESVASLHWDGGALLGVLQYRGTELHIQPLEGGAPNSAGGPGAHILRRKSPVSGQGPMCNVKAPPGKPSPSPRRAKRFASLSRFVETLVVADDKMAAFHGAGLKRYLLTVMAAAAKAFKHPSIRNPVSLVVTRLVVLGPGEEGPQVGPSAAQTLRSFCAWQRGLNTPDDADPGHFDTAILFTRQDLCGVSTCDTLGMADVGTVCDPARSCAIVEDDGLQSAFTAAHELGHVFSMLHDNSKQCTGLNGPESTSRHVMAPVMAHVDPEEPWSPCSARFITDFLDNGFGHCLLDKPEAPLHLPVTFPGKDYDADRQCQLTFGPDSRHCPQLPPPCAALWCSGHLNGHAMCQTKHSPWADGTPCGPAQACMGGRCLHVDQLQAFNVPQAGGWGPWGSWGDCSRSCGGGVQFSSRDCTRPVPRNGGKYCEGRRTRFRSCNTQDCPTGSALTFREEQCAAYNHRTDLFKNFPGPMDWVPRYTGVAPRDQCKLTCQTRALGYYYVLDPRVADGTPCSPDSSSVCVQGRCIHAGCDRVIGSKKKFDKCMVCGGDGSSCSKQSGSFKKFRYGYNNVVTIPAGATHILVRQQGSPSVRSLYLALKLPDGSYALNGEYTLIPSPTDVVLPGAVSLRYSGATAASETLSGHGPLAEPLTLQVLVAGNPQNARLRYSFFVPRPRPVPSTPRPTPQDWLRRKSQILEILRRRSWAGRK

[3] = biological target: T3, A disintegrin and metalloproteinase with thrombospondin motifs 5 (Homo sapiens, UniProt Q9UNA0); experiment: Inhibition of aggrecanase-2
T3 sequence (Q9UNA0 whole entry): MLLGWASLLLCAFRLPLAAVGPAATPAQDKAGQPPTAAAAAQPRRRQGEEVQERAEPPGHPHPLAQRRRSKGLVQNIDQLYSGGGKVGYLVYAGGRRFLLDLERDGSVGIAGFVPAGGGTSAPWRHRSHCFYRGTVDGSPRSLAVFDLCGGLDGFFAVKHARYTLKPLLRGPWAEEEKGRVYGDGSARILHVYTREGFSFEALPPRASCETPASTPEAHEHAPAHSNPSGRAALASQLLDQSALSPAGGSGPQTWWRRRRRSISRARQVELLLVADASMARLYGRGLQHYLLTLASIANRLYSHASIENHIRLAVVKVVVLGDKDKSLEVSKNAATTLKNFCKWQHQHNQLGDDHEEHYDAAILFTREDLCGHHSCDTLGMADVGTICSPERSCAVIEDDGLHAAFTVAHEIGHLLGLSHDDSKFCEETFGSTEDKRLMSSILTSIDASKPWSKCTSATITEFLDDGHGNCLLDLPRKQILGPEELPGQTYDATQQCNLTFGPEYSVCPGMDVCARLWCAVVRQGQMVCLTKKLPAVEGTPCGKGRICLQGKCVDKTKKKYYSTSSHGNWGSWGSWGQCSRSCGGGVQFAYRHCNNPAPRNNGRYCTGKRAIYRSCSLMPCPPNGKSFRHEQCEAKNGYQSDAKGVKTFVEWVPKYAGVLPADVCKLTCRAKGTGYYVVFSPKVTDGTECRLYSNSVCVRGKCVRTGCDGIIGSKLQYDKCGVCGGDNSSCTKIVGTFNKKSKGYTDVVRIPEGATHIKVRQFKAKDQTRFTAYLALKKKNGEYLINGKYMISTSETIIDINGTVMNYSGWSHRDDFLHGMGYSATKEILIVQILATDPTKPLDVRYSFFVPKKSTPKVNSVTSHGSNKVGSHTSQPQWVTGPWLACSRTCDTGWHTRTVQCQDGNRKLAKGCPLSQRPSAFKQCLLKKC

[4] = biological target: T4, A disintegrin and metalloproteinase with thrombospondin motifs 5 (Homo sapiens) (UniProt Q9UNA0); experiment: Inhibition of aggrecanase-2 at 200 uM
T4 sequence (whole entry): T3 sequence (Q9UNA0 whole entry)

IC50 [1] [nM] | IC50 (Collagenase 3) [nM] | SMILES | also measured
25000 |  | CC(C)[C@@H](NS(=O)(=O)c1ccc(-c2ccc(OC(=O)NCc3ccccc3)cc2)cc1)C(=O)O | 
 | 9.6 | Cc1cc(COc2ccc(-c3ccc(S(=O)(=O)N[C@@H](C(=O)O)C(C)C)cc3)cc2)c2ccccc2n1 | 
33000 |  | CC(C)[C@@H](NS(=O)(=O)c1ccc(-c2ccc(OCc3ccccn3)cc2)cc1)C(=O)O | 
 | 1.4 | CC(C)[C@@H](NS(=O)(=O)c1ccc(-c2ccc(OCc3ccc4ccccc4c3)cc2)cc1)C(=O)O | 
8500 | 1.1 | CC(C)[C@@H](NS(=O)(=O)c1ccc(-c2ccc(OCc3ccncc3)cc2)cc1)C(=O)O | 
40000 |  | CC(C)[C@@H](NS(=O)(=O)c1ccc(-c2cccc(C#N)c2)cc1)C(=O)O | 
20000 |  | CC(=O)Nc1cccc(-c2ccc(S(=O)(=O)N[C@@H](C(=O)O)C(C)C)cc2)c1 | 
> 75000 |  | CC(C)[C@@H](NS(=O)(=O)c1ccc(-c2ccc(OCC3CCCCC3)cc2)cc1)C(=O)O | 
 | 4 | Cc1c(COc2ccc(-c3ccc(S(=O)(=O)N[C@@H](C(=O)O)C(C)C)cc3)cc2)oc2ccccc12 | inhibition [2]: 89%; IC50 [3]: 3700 nM
10600 |  | CC(C)[C@@H](NS(=O)(=O)c1ccc(-c2ccc(OCc3ccc4ccccc4n3)cc2)cc1)C(=O)O | 
 | 5.6 | CC(C)[C@@H](NS(=O)(=O)c1ccc(-c2ccc(OCc3ccccc3)cc2)cc1)C(=O)O | 
760 | 2.6 | COC(=O)c1cccc(COc2ccc(-c3ccc(S(=O)(=O)N[C@@H](C(=O)O)C(C)C)cc3)cc2)c1 | 
15000 |  | CC(C)[C@@H](NS(=O)(=O)c1ccc(-c2ccc(CO)cc2)cc1)C(=O)O | 
7200 |  | CC(C)[C@@H](NS(=O)(=O)c1ccc(-c2cccc(CN)c2)cc1)C(=O)O | 
8400 |  | CC(C)[C@@H](NS(=O)(=O)c1ccc(-c2cccc(C(N)=O)c2)cc1)C(=O)O | 
13200 |  | CC(C)[C@@H](NS(=O)(=O)c1ccc(-c2ccc(Oc3ccccc3)cc2)cc1)C(=O)O | 
30000 |  | CC(C)[C@@H](NS(=O)(=O)c1ccc(-c2ccc(OCc3cccnc3)cc2)cc1)C(=O)O | 
> 200000 |  | CC(=O)N(C)Cc1ccc(-c2ccc(S(=O)(=O)N[C@@H](C(=O)O)C(C)C)cc2)cc1 | 
22000 | 2.7 | CC(C)[C@@H](NS(=O)(=O)c1ccc(-c2ccc(OCc3cccc(C(=O)O)c3)cc2)cc1)C(=O)O | 
400 | 1.4 | CC(C)[C@@H](NS(=O)(=O)c1ccc(-c2ccc(OCc3cccc(Cl)c3)cc2)cc1)C(=O)O | 

IC50 [1] [nM] | IC50 (Collagenase 3) [nM] | SMILES | also measured
100000 |  | CC(C)[C@@H](NS(=O)(=O)c1ccc(-c2ccc(CNC(=O)c3ccccc3)cc2)cc1)C(=O)O | 
100000 |  | CC(=O)Nc1ccc(-c2ccc(S(=O)(=O)N[C@@H](C(=O)O)C(C)C)cc2)cc1 | 
420 | 450 | CC(=O)NCc1ccc(-c2ccc(S(=O)(=O)N[C@@H](C(=O)O)C(C)C)cc2)cc1 | inhibition [4]: 73%; inhibition [2]: 20%
2700 | 12 | CC(Oc1ccc(-c2ccc(S(=O)(=O)N[C@@H](C(=O)O)C(C)C)cc2)cc1)c1cccc(C(F)(F)F)c1 (stereo partly drawn) | 
1400 | 7.1 | CC(C)[C@@H](NS(=O)(=O)c1ccc(-c2ccc(OCc3cccc4ccccc34)cc2)cc1)C(=O)O | 
> 200000 |  | CC(=O)NCc1cccc(-c2ccc(S(=O)(=O)N[C@@H](C(=O)O)C(C)C)cc2)c1 | 
420 | 1600 | CC(C)[C@@H](NS(=O)(=O)c1ccc(-c2ccc(OCc3cccc(Br)c3)cc2)cc1)C(=O)O | 
2400 | 0.7 | Cc1cc(COc2ccc(-c3ccc(S(=O)(=O)N[C@@H](C(=O)O)C(C)C)cc3)cc2)ccn1 | 
4700 | 4300 | CC(C)[C@@H](NS(=O)(=O)c1ccc(-c2ccc(OCc3cccc(C(F)(F)F)n3)cc2)cc1)C(=O)O | 
3700 | 4000 | CC(C)[C@@H](NS(=O)(=O)c1ccc(-c2ccc(OCc3cccc(O)c3)cc2)cc1)C(=O)O | 
2100 |  | CC(C)[C@@H](NS(=O)(=O)c1ccc(-c2cccc(CO)c2)cc1)C(=O)O | 
2600 | 2.2 | CC(C)[C@@H](NS(=O)(=O)c1ccc(-c2ccc(OCc3cccc(F)c3)cc2)cc1)C(=O)O | 
310 | 3.5 | CC(C)[C@@H](NS(=O)(=O)c1ccc(-c2ccc(OCc3cccc(C(F)(F)F)c3)cc2)cc1)C(=O)O | inhibition [2]: 87%; IC50 [3]: 2380 nM
9100 | 24700 | CC(C)[C@@H](NS(=O)(=O)c1ccc(-c2ccc(OCc3ccccc3C(F)(F)F)cc2)cc1)C(=O)O | 
540 | 1.4 | CC(C)[C@@H](NS(=O)(=O)c1ccc(-c2ccc(OCc3cccc([N+](=O)[O-])c3)cc2)cc1)C(=O)O | 
1400 | 0.1 | CC(C)[C@@H](NS(=O)(=O)c1ccc(-c2ccc(OCc3ccc(C#N)cc3)cc2)cc1)C(=O)O | 
2200 | 1 | CC(C)[C@@H](NS(=O)(=O)c1ccc(-c2ccc(OCc3ccnc(C(F)(F)F)c3)cc2)cc1)C(=O)O | 
8200 |  | CC(C)[C@@H](NS(=O)(=O)c1ccc(-c2ccc(OS(=O)(=O)c3ccccc3)cc2)cc1)C(=O)O | 
1900 | 2 | CC(C)[C@@H](NS(=O)(=O)c1ccc(-c2ccc(OCc3ccc(C(F)(F)F)cc3)cc2)cc1)C(=O)O | 
1000 | 5.2 | CC(C)[C@@H](NS(=O)(=O)c1ccc(-c2ccc(OCc3ccnc4ccccc34)cc2)cc1)C(=O)O | 

SMILES | IC50 [1] [nM] | IC50 (Collagenase 3) [nM] | also measured
CC(C)[C@@H](NS(=O)(=O)c1ccc(-c2ccc(OC(=O)Nc3ccccc3)cc2)cc1)C(=O)O | 5600 |  | 
CC(C)[C@@H](NS(=O)(=O)c1ccc(-c2ccc(OC(N)=O)cc2)cc1)C(=O)O | 4100 |  | 
CNC(=O)Oc1ccc(-c2ccc(S(=O)(=O)N[C@@H](C(=O)O)C(C)C)cc2)cc1 | 50000 |  | 
